From paper PMC3961306, “Comparison of the Cancer Gene Targeting and Biochemical Selectivities of All Targeted Kinase Inhibitors Approved for Clinical Use” (PLoS ONE, 2014)

How the values were obtained:
Test in all cases: Kinase profiling in a biochemical assay panel (mobility shift assays and ELISA), %-inhibition at 1 μM; selectivity entropy
[1] = molecular target: T1, panel of more than 300 wild-type and mutant kinases (313 kinase panel) (Homo sapiens, UniProt Q15831); details: kinase LKB1; compound at 1 μM
T1 sequence (Q15831 1-433): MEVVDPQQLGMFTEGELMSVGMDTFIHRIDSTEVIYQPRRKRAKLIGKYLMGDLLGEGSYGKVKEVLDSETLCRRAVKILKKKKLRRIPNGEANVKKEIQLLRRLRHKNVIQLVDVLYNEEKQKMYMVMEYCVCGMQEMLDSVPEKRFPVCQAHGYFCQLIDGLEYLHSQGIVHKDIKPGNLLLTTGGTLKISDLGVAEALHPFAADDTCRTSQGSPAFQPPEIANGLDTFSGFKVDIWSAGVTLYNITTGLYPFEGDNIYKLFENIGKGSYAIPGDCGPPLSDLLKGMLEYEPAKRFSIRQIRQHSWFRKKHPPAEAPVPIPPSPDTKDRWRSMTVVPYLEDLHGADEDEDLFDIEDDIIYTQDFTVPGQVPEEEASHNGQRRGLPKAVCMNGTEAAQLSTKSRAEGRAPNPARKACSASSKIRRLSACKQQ

[2] = molecular target: panel of more than 300 wild-type and mutant kinases (313 kinase panel) (Homo sapiens, UniProt Q13164); details: kinase Erk5; compound at 1 μM
[3] = molecular target: panel of more than 300 wild-type and mutant kinases (313 kinase panel) (Homo sapiens, UniProt P10721, D816V); details: kinase KIT(D816V); compound at 1 μM
[4] = molecular target: panel of more than 300 wild-type and mutant kinases (313 kinase panel) (Homo sapiens, UniProt P27361); details: kinase Erk1; compound at 1 μM
[5] = molecular target: panel of more than 300 wild-type and mutant kinases (313 kinase panel) (Homo sapiens, UniProt Q15375); details: kinase EPHA7; compound at 1 μM
[6] = molecular target: panel of more than 300 wild-type and mutant kinases (313 kinase panel) (Homo sapiens, UniProt P48729); details: kinase CK1α; 1 μM compound
[7] = molecular target: panel of more than 300 wild-type and mutant kinases (313 kinase panel) (Homo sapiens, UniProt Q16620); details: kinase TRKB; 1 μM
[8] = molecular target: panel of more than 300 wild-type and mutant kinases (313 kinase panel) (Homo sapiens, UniProt Q14289); details: kinase PYK2; 1 μM
[9] = molecular target: panel of more than 300 wild-type and mutant kinases (313 kinase panel) (Homo sapiens, UniProt O75116); details: kinase ROCK2; 1 μM
[10] = molecular target: panel of more than 300 wild-type and mutant kinases (313 kinase panel) (Homo sapiens, UniProt P22607); details: kinase FGFR3; compound at 1 μM
[11] = molecular target: panel of more than 300 wild-type and mutant kinases (313 kinase panel) (Homo sapiens, UniProt P68400); details: kinase CK2α1/β; 1 μM compound
[12] = molecular target: panel of more than 300 wild-type and mutant kinases (313 kinase panel) (Homo sapiens, UniProt Q06187); details: kinase BTK; 1 μM compound
[13] = molecular target: panel of more than 300 wild-type and mutant kinases (313 kinase panel) (Homo sapiens, UniProt P49674); details: kinase CK1ε; 1 μM compound
[14] = molecular target: panel of more than 300 wild-type and mutant kinases (313 kinase panel) (Homo sapiens, UniProt P10721, V654A); details: kinase KIT(V654A); compound at 1 μM
[15] = molecular target: panel of more than 300 wild-type and mutant kinases (313 kinase panel) (Homo sapiens, UniProt Q13882); details: kinase BRK; 1 μM compound
[16] = molecular target: panel of more than 300 wild-type and mutant kinases (313 kinase panel) (Homo sapiens, UniProt P16234, V561D); details: kinase PDGFRα(V561D); 1 μM
[17] = molecular target: panel of more than 300 wild-type and mutant kinases (313 kinase panel) (Homo sapiens, UniProt P22607, K650M); details: kinase FGFR3(K650M); compound at 1 μM
[18] = molecular target: panel of more than 300 wild-type and mutant kinases (313 kinase panel) (Homo sapiens, UniProt O75676); details: kinase MSK2; 1 μM
[19] = molecular target: panel of more than 300 wild-type and mutant kinases (313 kinase panel) (Homo sapiens, UniProt P08581); details: kinase MET; compound at 1 μM

| SMILES | %-inhibition of LKB1 [1] [%] | %-inhibition of Erk5 [2] [%] | %-inhibition of KIT(D816V) [3] [%] | %-inhibition of Erk1 [4] [%] | %-inhibition of EPHA7 [5] [%] | %-inhibition, CK1α [6] [%] | %-inhibition of TRKB [7] [%] | %-inhibition of PYK2 [8] [%] | %-inhibition of ROCK2 [9] [%] | %-inhibition of FGFR3 [10] [%] | %-inhibition, CK2α1/β [11] [%] | %-inhibition, BTK [12] [%] | %-inhibition, CK1ε [13] [%] | %-inhibition of KIT(V654A) [14] [%] | %-inhibition, BRK [15] [%] | %-inhibition of PDGFRα(V561D) [16] [%] | %-inhibition of FGFR3(K650M) [17] [%] | %-inhibition of MSK2 [18] [%] | %-inhibition of MET [19] [%] |
| --- | --- | --- | --- | --- | --- | --- | --- | --- | --- | --- | --- | --- | --- | --- | --- | --- | --- | --- | --- |
| CO[C@H]1C[C@@H]2CC[C@@H](C)[C@@](O)(O2)C(=O)C(=O)N2CCCC[C@H]2C(=O)O[C@H]([C@H](C)C[C@@H]2CC[C@@H](OC(=O)C(C)(CO)CO)[C@H](OC)C2)CC(=O)[C@H](C)/C=C(\C)[C@@H](O)[C@@H](OC)C(=O)[C@H](C)C[C@H](C)/C=C/C=C/C=C/1C [temsirolimus] | -6.57 | -5 | -2.12 | 0.373 | -6 | -14 | 1.08 | -3 | -5.66 | -5 | -6.65 | 18 | -7 | -4.65 | -6 | -4 | 0.626 | -5 | -4.57 |
| CC(=O)Nc1cccc(-n2c(=O)n(C3CC3)c(=O)c3c(Nc4ccc(I)cc4F)n(C)c(=O)c(C)c32)c1 [trametinib] | 2.38 | -2.55 | -4 | -1.14 | -5 | 3 | -3.4 | 2.72 | 3 | -5.68 | -3.4 | 18 | -5.38 | -1.62 | -5.53 | 2.22 | -0.169 | -4.75 | -2.41 |
| CCCS(=O)(=O)Nc1ccc(F)c(C(=O)c2c[nH]c3ncc(-c4ccc(Cl)cc4)cc23)c1F [vemurafenib] | 1.13 | 0.709 | 17 | 0.0533 | -0.639 | -4.34 | 11 | 0.921 | -0.177 | 15 | -5.39 | 2 | 2.46 | -1.8 | 98 | 56 | 8 | -1 | 3.67 |
